Patent US12311019B2, “Vaccine composition and uses thereof” (Imugene Limited, priority 2018, dated 2025)
“Also recorded” adds a separate entry of the source.

Assays:
[1] = tested on: rat anti-mouse PD1 monoclonal antibody (mAb) (Biolegend, clone 29F.1A12); experiment: Colony blot assay of E. coli clones expressing GST-fused overlapping mPD1 peptides; assay type: binding; conditions: GST-fused 15-mer
Excerpt: The protein sequence corresponding to the extracellular domain of mouse PD-1 (Q02242; Uniprot) was electronically back-translated into DNA sequences (ATG:Biosynthetics GmbH; Merzhausen, Germany). The protein-coding DNA sequences were partitioned into uniformly sized peptide-CDS as overlapping peptides in 15 amino acids (aa) length, with an offset of 3 aa, and the resulted DNA sequences were inserted into the expression vector pEPX-1 (ATG:Biosynthetics GmbH; Merzhausen, Germany). […] Expression vectors were used for transformation of E. coli strain BL21. Colonies (clones) of E. coli harbouring the expression vectors were picked from plates supplemented with Kanamycin and used for screening by colony blot assay. A colony harbouring the expression vector with no insert (i.e. control) was also picked.
The clones of interest were replicated onto nitrocellulose membranes and lysed with lysis solution (Tris-HCl pH 8.0 50 mM, Lysozyme 200 μg/ml), followed by three cycles of freezing at −80C and thawing at 37C. After the last step of thawing, the membranes were incubated with the blocking solution containing PBS-5% skim milk. The blocking solution was discarded and the membranes were incubated for 2 h at RT with rat anti-mouse PD1 monoclonal antibody (mAb) (Biolegend, clone 29F.1A12). […]

[2] = target: T1, Jurkat T cells expressing mPD1 (Mus musculus, UniProt Q02242); experiment: Inhibition of anti-mouse PD1 mAb binding to mPD1-positive Jurkat T cells; assay type: cell-based; conditions: mAb pre-incubated with different concentrations of JT-mPD1
T1 construct: expressed in transfected cells; host or cells: Jurkat E6.1 NF-kB::eGFP reporter T cells (human)
T1 sequence (Q02242 25-288): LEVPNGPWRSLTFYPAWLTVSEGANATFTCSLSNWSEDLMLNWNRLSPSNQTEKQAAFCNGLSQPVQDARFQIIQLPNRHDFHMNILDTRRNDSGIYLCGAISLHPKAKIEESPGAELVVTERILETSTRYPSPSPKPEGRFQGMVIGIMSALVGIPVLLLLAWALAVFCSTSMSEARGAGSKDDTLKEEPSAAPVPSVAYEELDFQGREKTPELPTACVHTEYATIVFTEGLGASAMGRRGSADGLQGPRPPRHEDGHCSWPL
Procedure: To produced T cells expressing mouse PD-1, Jurkat E6.1 NF-κB::eGFP reporter T cell line and the K562 stimulator cell line were cultured as previously described (Battin et al. PLoS One, 2017, 12(5):e0178220; PMID: 28542462). JE6.1 NF-kB::eGFP reporter cells expressing mouse PD-1 have been previously described (Jutz et al. Oncotarget, 2017, 8(39):64892-64906; PMID: 29029399). T cell stimulator cells, based on the K562 cell line (K562S), were generated by retrovirally transducing a CD5L-OKT3scFv-CD14 construct encoding an anti-human CD3 single chain fragment fused to human CD14 (Leitner et al. J. Immunol. Methods, 2010, 362(1-2):131-141; PMID: 20858499). K562S stimulate human T cells and T cell lines by ligating their TCR-CD3 complex. In order to separate stimulator cells from reporter cells, K562S were engineered to constitutively express a red fluorescent protein (RFP). […] To confirm cell surface expression of respective molecules, a PE-conjugated anti-mPD-1 antibody (29F.1A12) from Biolegend (San Diego, CA) was used. Membrane-bound anti-CD3 fragment on K562S cells was detected with a PE-conjugated goat-anti-mouse IgG (H+L) antibody (Jackson ImmunoResearch, West Grove, PA). […] Data was analysed using FlowJo software (version 10.0.8., Tree Star, Ashland, OR) and Graphpad Prism (version 5, GraphPad Software, Inc., La Jolla, CA). […]

For “ISLHPKAKIEESPGA (listed as Mus musculus) [JT-mPD1, amino acid residues 126-140 of mouse PD1 (Uniprot Q02242)]”, the “reactivity to the rat anti-mouse PD1 monoclonal antibody” value [1] was “reactive” and the “inhibition of binding of anti-mouse PD1 mAb to mPD1-positive Jurkat T cells” value [2] was “dose-dependently inhibited; also recorded: inhibited dose-dependently”.
